Test system: T. cruzi
Assay: T. cruzi in vitro inhibition assay
Format: cell-based, Trypanosoma cruzi
Details: host cells NIH 3T3

Row | SMILES | selectivity over host cells
1 | Clc1ccc(COc2cccc(Cn3ccnc3)c2)cc1 [Compound 4j, 1-(3-((4-chlorobenzyl)oxy)benzyl)-1H-imidazole] | greater than 160 fold
2 | Cc1cc(Oc2cccc(Cn3ccnc3)c2)cc(C)c1Cl [Compound 4c, 1-(3-(4-chloro-3,5-dimethylphenoxy)benzyl)-1H-imidazole] | greater than 160 fold
